According to the supplement of paper PMC5579334:

What was measured:
YST-1 = test: relative IC50 (inflection point of fitted dose-response curve, CellTiter-Glo viability, 72 h; top asymptote may be below 50% inhibition); higher = less potent
In short: (§1)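 After seeding 750–1000 cells per well of MPNST cell lines or primary human Schwann cells into 384-well plates preprinted with each compound at five concentrations in 10-fold steps, plates were kept 72 h at 37 °C, 5% CO2. Viability was read as CellTiter-Glo ATP luminescence relative to vehicle and positive-control wells, with duplicates averaged where present. The data were fitted with four-parameter logistic models. Drug sensitivity score and relative IC50, censored at the top concentration, derive from the fits, and percent inhibition refers to the top concentration.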

HS-Sch-2 = test: as above
In short: as §1

HS-PSS [1] = test: as above
In short: as §1

HS-PSS [2] = test: relative IC50 (inflection point of fitted dose-response curve, CellTox-Green cytotoxicity, 72 h; top asymptote may be below 50%); higher = less potent
In short: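 For 72 h at 37 °C, MPNST cell lines and primary human Schwann cells were exposed in 384-well plates to five 10-fold compound dilutions. CellTox-Green, added before seeding at a final 1:1000 dilution, gave fluorescence from DNA released by disrupted cells. Signals were scaled to vehicle and positive-control wells, cultures failing plate quality control were left out, and four-parameter logistic fits were applied. Relative IC50 and drug sensitivity score were derived from the fits, with IC50 censored at the top concentration.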

Row | SMILES | relative IC50 (YST-1) [nM] | relative IC50 (HS-Sch-2) [nM] | relative IC50 (HS-PSS [1]) [nM] | relative IC50 (HS-PSS [2]) [nM]
1 | CNC(=O)c1ccc2cc([C@@]3(O)CCn4cncc43)ccc2c1 [Orteronel] | > 10000 | > 10000 | > 10000 | > 10000
2 | COc1ncc(-c2ccc3nccc(-c4ccnnc4)c3c2)cc1NS(=O)(=O)c1ccc(F)cc1F [Omipalisib] | 6.88 | 98.4 | 35.2 | > 1000
3 | Cc1cc(-c2ncc(CC(=O)Nc3ccc(-c4cnccn4)cn3)cc2C)ccn1 [NVP-LGK974] | > 10000 | 2920 | 1970 | > 10000
4 | O=C(O)c1ccc2c(c1)nc(Nc1cccc(Cl)c1)c1ccncc12 [Silmitasertib] | 2360 | 3540 | 2580 | > 10000
5 | C[C@@H](Oc1cc(-n2cnc3ccc(CN4CCN(C)CC4)cc32)sc1C(N)=O)c1ccccc1C(F)(F)F | 20.9 | 11.9 | 501 | 3200
6 | c1ccc(Cn2c(-c3ccc(OC[C@H](C4CCNCC4)n4c(-c5ccccc5)nc5ccccc54)cc3)nc3ccccc32)cc1 [deltarasin] | 3360 | 3060 | 2470 | 2470
7 | Cc1sc2c(c1C)C(c1ccc(Cl)cc1)=N[C@@H](CC(=O)Nc1ccc(O)cc1)c1nnc(C)n1-2 [OTX015] | 162 | 223 | 321 | > 10000
8 | NC(=O)N1CCC(CC(=O)N2CCC([C@H]3c4ncc(Br)cc4CCc4cc(Cl)cc(Br)c43)CC2)CC1 [Lonafarnib] | 1370 | 1660 | 2150 | > 10000
9 | O=c1sn(-c2cccc3ccccc23)c(=O)n1Cc1ccccc1 [Tideglusib] | > 3000 | > 3000 | > 3000 | > 3000
10 | CCn1c(=O)c(-c2ccc(Cl)cc2Cl)cc2cnc(Nc3ccc(N4CCNCC4)c(F)c3)nc21 [FRAX486] | > 5000 | 133 | 1750 | > 5000
11 | Cc1cc(Nc2cc(N3CCN(C)CC3)nc(/C=C/c3ccccc3)n2)n[nH]1 [ENMD-2076] | 361 | 763 | 1060 | 2290
12 | CC(C)[C@H]1C(=O)N[C@@H](CCCNC(=N)N)C(=O)NCC(=O)N[C@@H](CC(=O)O)C(=O)N[C@H](Cc2ccccc2)C(=O)N1C [Cilengitide] | > 10000 | 3250 | > 10000 | > 10000
13 | Oc1ncc(N(CCCl)CCCl)c(O)n1 [Uramustine] | > 10000 | > 10000 | > 10000 | > 10000
14 | Cc1c(F)cc(C(=O)NC2CC2)cc1-c1ccc(C(=O)NCC(C)(C)C)cn1 [Losmapimod] | 24.9 | > 10000 | > 10000 | > 10000
15 | Cc1nc(Nc2n[nH]c3c2CN(C(=O)N[C@H](CN(C)C)c2ccccc2)C3(C)C)c2sccc2n1 | 67 | 413 | 22.5 | 127
16 | CC(C)NC(=O)COc1cccc(-c2nc(Nc3ccc4[nH]ncc4c3)c3ccccc3n2)c1 [SLx-2119] | 193 | 653 | 1040 | > 5000
17 | COc1ccc(C[C@H](NC(=O)[C@H](C)NC(=O)CN2CCOCC2)C(=O)N[C@@H](Cc2ccccc2)C(=O)[C@@]2(C)CO2)cc1 [ONX-0914] | 309 | 158 | 335 | 307
18 | Cn1cc(-c2cnn3c(N)c(Br)c([C@@H]4CCCNC4)nc23)cn1 [MK-8776] | 362 | 360 | > 2500 | > 2500
19 | CNc1ncc2cc(-c3cc(NC(=O)NCCC(C)(C)C)c(F)cc3C)c(C)nc2n1 | 561 | 235 | 3820 | 3590

Row | SMILES | relative IC50 (YST-1) [nM] | relative IC50 (HS-Sch-2) [nM] | relative IC50 (HS-PSS [1]) [nM] | relative IC50 (HS-PSS [2]) [nM]
20 | CCCOc1ccn2c(C(C)=O)cc(-c3ccccc3S(C)(=O)=O)c2c1 [GSK2801] | > 10000 | > 10000 | > 10000 | > 10000
21 | CCNC(=O)C[C@@H]1N=C(c2ccc(Cl)cc2)c2cc(OC)ccc2-n2c(C)nnc21 | 501 | 624 | 709 | > 10000
22 | COc1ccc(-c2nc(N3CCOCC3)c3sc(CN(C)c4ncc(C(=O)NO)cn4)cc3n2)cn1 [CUDC-907] | 3.12 | 24.3 | 20.7 | 66.7
23 | Cc1c(CN2CCN(C(=O)[C@H](C)O)CC2)sc2c(N3CCOCC3)nc(-c3cnc(N)nc3)nc12 [Apitolisib] | 167 | 732 | 715 | > 10000
24 | Cn1cc(C2=Nc3cc(NC(=O)C(N)C4CCCCC4)cc4c3C2=CNNC4=O)cn1 (stereo not given) | 163 | 108 | 77.1 | > 10000
25 | O=c1cc(N2CCOCC2)oc2c(-c3ccccc3)cccc12 | 7660 | 13700 | 13400 | 18300
26 | CN(C)c1cc2c(cc1Sc1nc3c(N)nccc3n1CCNCC(C)(C)C)OCO2 [CUDC-305] | 516 | 219 | 510 | 384
27 | CCCCc1nc2cc(/C=C/C(=O)NO)ccc2n1CCN(CC)CC [Pracinostat] | 121 | 429 | 728 | 1630
28 | CCCCNc1ncc(C(=O)NCc2ccc(-n3ccnc3)cc2)c(NC2CCC(O)CC2)n1 (stereo not given) [UNC2881] | 345 | > 2500 | 338 | > 2500
29 | N[C@@H](Cc1ccc(N(CCCl)CCCl)cc1)C(=O)O [Melphalan] | > 12500 | > 12500 | > 12500 | > 12500
30 | NCC(=O)Nc1ccc(-n2nc(C(F)(F)F)cc2-c2ccc3c(ccc4ccccc43)c2)cc1 | 7970 | 6000 | 9140 | 5040
31 | CCN(CC)CCCC(C)Nc1c2ccc(Cl)cc2nc2ccc(OC)cc12 (stereo not given) [Mepacrine] | 1790 | 1440 | 1440 | 1580
32 | COc1cc(OC)c(/C=C/S(=O)(=O)Cc2ccc(OC)c(NCC(=O)O)c2)c(OC)c1 [Rigosertib] | 59.2 | 92.2 | 130 | > 10000
33 | C1=N/C2=N/c3ccc(OCCN4CCCC4)c(c3)COC/C=C/COCc3cccc(c3)C(=C1)N2 [Pacritinib] | 1940 | 1760 | 1180 | 2780
34 | Cc1cc(OCc2nnc(SC3CCCC3)n2-c2cccnc2)ccc1-c1ccc(S(C)(=O)=O)cc1 [NMS-873] | 1490 | 193 | 101 | 2950
35 | Cn1cc(C[C@@H](N)C(=O)O)c2ccccc21 [1-methyl-D-tryptophan] | > 5000 | > 5000 | > 5000 | > 5000
36 | CC(C)c1cc(C(=O)N2Cc3ccc(CN4CCN(C)CC4)cc3C2)c(O)cc1O [Onalespib] | 105 | 37 | 114 | 62.7
37 | CNC(=O)c1ccccc1Nc1nc(Nc2ccc3c(c2OC)CCC[C@H](N2CCN(CCO)CC2)C3)ncc1Cl | 633 | 979 | 155 | 1090
38 | Cc1sc2c(c1C)C(c1ccc(Cl)cc1)=N[C@@H](CC(=O)OC(C)(C)C)c1nnc(C)n1-2 [JQ1] | 280 | 331 | 379 | > 10000

Row | SMILES | relative IC50 (YST-1) [nM] | relative IC50 (HS-Sch-2) [nM] | relative IC50 (HS-PSS [1]) [nM] | relative IC50 (HS-PSS [2]) [nM]
39 | CC(=O)O[C@]1(C(C)=O)CC[C@H]2[C@@H]3C=C(C)C4=CC(=O)CC[C@]4(C)[C@H]3CC[C@@]21C [Megestrol acetate] | > 10000 | > 10000 | > 10000 | > 10000
40 | O=C(Nc1nc2ccccc2n1CCN1CCOCC1)c1cccc([N+](=O)[O-])c1 [IRAK1/4 inhibitor] | > 25000 | > 25000 | > 25000 | > 25000
41 | Cc1nn(C)c(COc2ccc(N3CCN(S(=O)(=O)N(C)C)CC3)cc2)c1-c1cccc2c(CCCOc3cccc4ccccc34)c(C(=O)O)n(CCN3CCOCC3)c12 | 12700 | 15400 | 17800 | 14900
42 | C/C=C1\NC(=O)[C@H]2CSSCC/C=C/[C@H](CC(=O)N[C@H](C(C)C)C(=O)N2)OC(=O)[C@H](C(C)C)NC1=O [Romidepsin] | 0.75 | 2 | 300 | 337
43 | CN(C)Cc1ccc(S(=O)(=O)n2ccc(/C=C/C(=O)NO)c2)cc1 [Resminostat] | 578 | 2170 | 2180 | 3060
44 | CCN(CC)CCCC(C)Nc1ccnc2cc(Cl)ccc12 (stereo not given) [Chloroquine] | 14700 | 3750 | 2730 | 8350
45 | O=C1NC(=O)/C(=C/c2ccc3nccc(-c4ccncc4)c3c2)S1 | 1170 | 3380 | 3060 | > 10000
46 | CC[C@H](C)C(=O)O[C@H]1C[C@@H](C)C=C2C=C[C@H](C)[C@H](CC[C@@H]3C[C@@H](O)CC(=O)O3)[C@H]21 [Lovastatin] | > 10000 | > 10000 | > 10000 | > 10000
47 | CCc1c2c(nc3ccc(O)cc13)-c1cc3c(c(=O)n1C2)COC(=O)[C@]3(O)CC [SN-38] | 4.63 | 9.22 | 36 | 29.7
48 | CCN(CC)Cc1ccc2cc(COC(=O)Nc3ccc(C(=O)NO)cc3)ccc2c1 [Givinostat] | 63.7 | 166 | 351 | 253
49 | CCS(=O)(=O)N1CC(CC#N)(n2cc(-c3ncnc4[nH]ccc34)cn2)C1 [Baricitinib] | > 2500 | > 2500 | > 2500 | > 2500
50 | CCNC(=O)c1noc(-c2cc(C(C)C)c(O)cc2O)c1-c1ccc(CN2CCOCC2)cc1 [Luminespib] | 10.3 | 11 | 39.3 | 51.8
51 | COc1cc(N2CCC(N3CCN(C)CC3)CC2)ccc1Nc1ncnc(Nc2ccccc2S(=O)(=O)C(C)C)n1 [ASP3026] | > 10000 | > 10000 | > 10000 | > 10000
52 | COc1c(OCCCN2CCOCC2)ccc2c1N=C(NC(=O)c1cnc(N)nc1)N1CCN=C21 [Copanlisib] | 22.1 | 113 | 405 | > 1000
53 | CO[C@H]1C(=O)[C@]2(C)[C@@H](OC)C[C@H]3OC[C@@]3(OC(C)=O)[C@H]2[C@H](OC(=O)c2ccccc2)[C@]2(O)C[C@H](OC(=O)[C@H](O)[C@@H](NC(=O)OC(C)(C)C)c3ccccc3)C(C)=C1C2(C)C [Cabazitaxel] | 0.74 | 0.94 | 418 | –
54 | CC(C)Oc1ccc(C(=O)N[C@H](CNC(=O)CN(C)C)Cc2ccc(-c3cn4cccc([C@H](C)O)c4n3)cc2)cc1Cl | 75.4 | 72.3 | 757 | –
55 | CC(=O)c1cnc2ccc(-c3cc(Cl)c(O)c(Cl)c3)nc2c1N[C@H]1CC[C@H](CN(C)C)CC1 [OTSSP167] | 10.8 | 26.1 | 339 | –
56 | Cc1c(NC(=O)OC[C@@H]2COCCN2)cn2ncnc(Nc3ccc4c(cnn4Cc4cccc(F)c4)c3)c12 | 1000 | 1990 | 2150 | –
